Structures can show the parent of a compound that is named as a salt.
The compounds below were run against Recombinant Human (rh) DPP1 (Homo sapiens, UniProt P53634) (assay: Fluorescence Assay for Recombinant Human (rh) DPP1). Conditions: rhDPP1; substrate H-Gly-Arg-AMC; pH5.0; 30 min pre-incubation, 60 min reaction at 22° C.; highest concentration 10 μM; read-out: DPP1 activity, pIC50 (converted).
Format: biochemical
Protocol: Fluorescence Assay for Recombinant Human (rh) DPP1
The activity of DPP1 was determined by measuring the enzymatic release of aminomethyl coumarin (AMC) from the peptide substrate (H-Gly-Arg-AMC), which leads to an increase in fluorescence intensity at λex=350 nm and λem=450 nm. The assay was carried out in black 384 well plates in a final volume of 50 μl at 22° C. The assay conditions contained the following: 25 mM piperazine buffer pH5.0; 50 mM NaCl, 5 mM DTT; 0.01% (v/v) Triton X-100; 100 μM H-Gly-Arg-AMC and rhDPP1 ([…]). Potential inhibitors were made up in DMSO and then diluted in the assay to give a final concentration of 1% (v/v) DMSO. A 12-point half-log dilution of the inhibitors (highest concentration 10 μM) was tested and the pIC50 determined using a 4-parameter logistic equation in a non-linear curve fitting routine. A standard DPP1 inhibitor (vinyl sulfone, see below) was used as a positive control in the assay. Routinely, inhibitors were pre-incubated with rhDPP1 for 30 min prior to the addition of the peptide substrate to start the reaction for a further 60 min at 22° C. After that the plates were immediately read in a fluorescence plate reader using the above emission and excitation wavelengths [modified from Kam, C M, Gotz, M G, Koot, G, McGuire, M J, Thiele, D L, Hudig, D & Powers, J C (2004). Arch Biochem Biophys, 427, 123-134 & McGuire, M J, Lipsky, P E & Thiele, D L (1992). Arch Biochem Biophys, 295, 280-288].

Sequence of Recombinant Human (rh) DPP1 (P53634 25-463): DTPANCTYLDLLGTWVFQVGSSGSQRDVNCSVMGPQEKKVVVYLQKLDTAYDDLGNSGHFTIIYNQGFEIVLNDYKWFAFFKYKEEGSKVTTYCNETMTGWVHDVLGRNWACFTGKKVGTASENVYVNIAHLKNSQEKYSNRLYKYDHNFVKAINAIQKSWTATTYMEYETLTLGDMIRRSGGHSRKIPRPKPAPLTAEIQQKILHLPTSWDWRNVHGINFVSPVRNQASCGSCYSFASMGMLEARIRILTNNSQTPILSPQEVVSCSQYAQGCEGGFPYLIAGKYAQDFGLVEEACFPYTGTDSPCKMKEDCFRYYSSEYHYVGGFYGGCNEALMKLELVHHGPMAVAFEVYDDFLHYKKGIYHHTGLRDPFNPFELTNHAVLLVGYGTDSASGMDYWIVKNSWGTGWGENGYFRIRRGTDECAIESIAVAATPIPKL

Point of comparison: `N#C[C@H](Cc1ccc(-c2cccc3cccnc23)cc1)NC(=O)[C@@H]1CCCCN1` [Example 49, (2S)-N-[(1S)-1-Cyano-2-(4-quinolin-8-ylphenyl)phenyl]piperidine-2-carboxamide trifluoroacetate], IC50 2000 nM. Against it:
- COc1ccc(-c2ccc(C[C@@H](C#N)NC(=O)[C@@H]3CCCCN3)cc2)cc1OC [Example 32, (2S)-N-[(1S)-1-Cyano-2-[4-(3,4-dimethoxyphenyl)phenyl]ethyl]piperidine-2-carboxamide trifluoroacetate] — 13-fold lower, 158 nM
- COc1ccc(-c2ccc(C[C@@H](C#N)NC(=O)[C@@H]3CCCCN3)cc2)c(OC)c1 [Example 33, (2S)-N-[(1S)-1-Cyano-2-[4-(2,4-dimethoxyphenyl)phenyl]ethyl]piperidine-2-carboxamide trifluoroacetate] — 10-fold lower, 200 nM
- N#C[C@H](Cc1ccc(-c2cccc(C(N)=O)c2)cc1)NC(=O)[C@@H]1CCCCN1 [Example 34, (2S)-N-[(1S)-2-[4-(3-Carbamoylphenyl)phenyl]-1-cyano-ethyl]piperidine-2-carboxamide trifluoroacetate] — 10-fold lower, 200 nM
- N#C[C@H](Cc1ccc(-c2ccc3c(c2)OCCO3)cc1)NC(=O)[C@@H]1CCCCN1 [Example 35, (2S)-N-[(1S)-1-Cyano-2-[4-(2,5-dioxabicyclo[4.4.0]deca-7,9,11-trien-8-yl)phenyl]ethyl]piperidine-2-carboxamide trifluoroacetate] — 8-fold lower, 251 nM
- N#C[C@H](Cc1ccc(-c2ccc(CN)cc2)cc1)NC(=O)[C@@H]1CCCCN1 [Example 36, (2S)-N-[(1S)-2-[4-[4-(Aminomethyl)phenyl]phenyl]-1-cyano-ethyl]piperidine-2-carboxamide trifluoroacetate] — 8-fold lower, 251 nM
- CN(C)c1ncc(-c2ccc(C[C@@H](C#N)NC(=O)[C@@H]3CCCCN3)cc2)cn1 [Example 37, (2S)-N-[(1S)-1-Cyano-2-[4-(2-dimethylaminopyrimidin-5-yl)phenyl]ethyl]piperidine-2-carboxamide trifluoroacetate] — 6.3-fold lower, 316 nM
- Cc1cscc1-c1ccc(C[C@@H](C#N)NC(=O)[C@@H]2CCCCN2)cc1 [Example 38, (2S)-N-[(1S)-1-Cyano-2-[4-(4-methylthiophen-3-yl)phenyl]ethyl]piperidine-2-carboxamide trifluoroacetate] — 6.3-fold lower, 316 nM
- CCCOc1ccc(-c2ccc(C[C@@H](C#N)NC(=O)[C@@H]3CCCCN3)cc2)cc1F [Example 39, (2S)-N-[(1S)-1-Cyano-2-[4-(3-fluoro-4-propoxy-phenyl)phenyl]ethyl]pipe-ridine-2-carboxamide trifluoroacetate] — 6.3-fold lower, 316 nM
- COc1ncccc1-c1ccc(C[C@@H](C#N)NC(=O)[C@@H]2CCCCN2)cc1 [Example 40, (2S)-N-[(1S)-1-Cyano-2-[4-(2-methoxypyridin-3-yl)phenyl]ethyl]piperidine-2-carboxamide trifluoroacetate] — 6.3-fold lower, 316 nM
- Cn1nccc1-c1ccc(C[C@@H](C#N)NC(=O)[C@@H]2CCCCN2)cc1 [Example 41, (2S)-N-[(1S)-1-Cyano-2-[4-(2-methylpyrazol-3-yl)phenyl]ethyl]piperidine-2-carboxamide trifluoroacetate] — 5-fold lower, 398 nM
- CN(C)C(=O)c1cccc(-c2ccc(C[C@@H](C#N)NC(=O)[C@@H]3CCCCN3)cc2)c1 [Example 42, (2S)-N-[(1S)-1-Cyano-2-[4-[3-(dimethylcarbamoyl)phe-nyl]phenyl]ethyl]piperi-dine-2-carboxamide trifluoroacetate] — 4-fold lower, 501 nM
- CCS(=O)(=O)c1ccc(-c2ccc(C[C@@H](C#N)NC(=O)[C@@H]3CCCCN3)cc2)c(C)c1 [Example 43, (2S)-N-[(1S)-1-Cyano-2-[4-(4-ethylsulfonyl-2-methyl-phenyl)phenyl]ethyl]pipe-ridine-2-carboxamide trifluoroacetate] — 3.2-fold lower, 631 nM
- COc1c(F)cc(F)cc1-c1ccc(C[C@@H](C#N)NC(=O)[C@@H]2CCCCN2)cc1 [Example 44, (2S)-N-[(1S)-1-Cyano-2-[4-(3,5-difluoro-2-methoxy-phenyl)phenyl]ethyl]pipe-ridine-2-carboxamide trifluoroacetate] — 3.2-fold lower, 631 nM
- N#C[C@H](Cc1ccc(-c2cccc(CO)c2)cc1)NC(=O)[C@@H]1CCCCN1 [Example 45, (2S)-N-[(1S)-1-Cyano-2-[4-[3-(hydroxymethyl)phenyl]phenyl]ethyl]piperidine-2-carboxamide trifluoroacetate] — 2.5-fold lower, 794 nM
- COc1ncc(-c2ccc(C[C@@H](C#N)NC(=O)[C@@H]3CCCCN3)cc2)cn1 [Example 46, (2S)-N-[(1S)-1-Cyano-2-[4-(2-methoxypyrimidin-5-yl)phenyl]ethyl]piperidine-2-carboxamide trifluoroacetate] — 1.6-fold lower, 1260 nM
- CN1CCN(c2ccc(-c3ccc(C[C@@H](C#N)NC(=O)[C@@H]4CCCCN4)cc3)cn2)CC1 [Example 47, (2S)-N-[(1S)-1-Cyano-2-[4-[6-(4-methylpiperazin-1-yl)pyridin-3-yl]phenyl]ethyl]piperidine-2-carboxamide trifluoroacetate] — 1.6-fold lower, 1260 nM
- N#C[C@H](Cc1ccc(-c2ccccc2O)cc1)NC(=O)[C@@H]1CCCCN1 [Example 48, (2S)-N-[(1S)-1-Cyano-2-[4-(2-hydroxyphenyl)phenyl]ethyl]piperidine-2-carboxamide trifluoroacetate] — within 1.5-fold, 1580 nM
- Cc1ccccc1-c1ccc(C[C@@H](C#N)NC(=O)[C@@H]2CCCCN2)cc1 [Example 50, (2S)-N-[(1S)-1-Cyano-2-[4-(2-methylphenyl)phenyl]eth-yl]piperidine-2-carboxamide trifluoroacetate] — the same, 2000 nM
- N#C[C@H](Cc1ccc(-c2ccccc2OCc2ccccc2)cc1)NC(=O)[C@@H]1CCCCN1 [Example 51, (2S)-N-[(1S)-1-Cyano-2-[4-(2-phenylmethoxyphenyl)phenyl]ethyl]piperidine-2-carboxamide trifluoroacetate] — the same, 2000 nM
- Cc1ncccc1-c1ccc(C[C@@H](C#N)NC(=O)[C@@H]2CCCCN2)cc1 [Example 52, (2S)-N-[(1S)-1-Cyano-2-[4-(2-methylpyridin-3-yl)phenyl]ethyl]piperidine-2-carboxamide trifluoroacetate] — 1.6-fold higher, 3160 nM
- N#Cc1ccc(-c2ccc(C[C@@H](C#N)NC(=O)[C@@H]3CCCCN3)cc2)cn1 [Example 53, (S)-N-((S)-1-Cyano-2-(4-(6-cyanopyridin-3-yl)phenyl)ethyl)piperidine-2-carboxamide] — 63-fold lower, 31.6 nM
- N#C[C@H](Cc1ccc(-c2ccc3sc(=O)n(CCO)c3c2)cc1)NC(=O)[C@@H]1CCCCN1 [Example 54, (S)-N-((S)-1-Cyano-2-(4-(3-(2-hydroxyethyl)-2-oxo-2,3-dihydrobenzo[d]thiazol-5-yl)phenyl)ethyl)piperidine-2-carboxamide] — 400-fold lower, 5.01 nM
- COCCn1c(=O)sc2ccc(-c3ccc(C[C@@H](C#N)NC(=O)[C@@H]4CCCCN4)cc3)cc21 [Example 55, (S)-N-((S)-1-cyano-2-(4-(3-(2-methoxyethyl)-2-oxo-2,3-dihydrobenzo[d]thiazol-5-yl)phenyl)ethyl)piperidine-2-carboxamide] — 400-fold lower, 5.01 nM
- N#Cc1ccc(-c2ccc(C[C@@H](C#N)NC(=O)[C@@H]3CCCCN3)cc2)cc1F [Example 56, (S)-N-((S)-1-Cyano-2-(4′-cyano-3′-fluorobiphenyl-4-yl)ethyl)piperidine-2-carboxamide] — 200-fold lower, 10 nM
- CSc1cc(-c2ccc(C[C@@H](C#N)NC(=O)[C@@H]3CCCCN3)cc2)ccc1C#N [Example 57, (S)-N-((S)-1-Cyano-2-(4′-cyano-3′-(methylthio)biphenyl-4-yl)ethyl)-piperidine-2-carboxamide] — 630-fold lower, 3.16 nM
- CS(=O)(=O)c1cc(-c2ccc(C[C@@H](C#N)NC(=O)[C@@H]3CCCCN3)cc2)ccc1C#N [Example 58, (S)-N-((S)-1-Cyano-2-(4′-cyano-3′-(methylsulfonyl)biphenyl-4-yl)ethyl)piperidine-2-carboxamide] — 130-fold lower, 15.8 nM
- CCS(=O)(=O)c1cc(-c2ccc(C[C@@H](C#N)NC(=O)[C@@H]3CCCCN3)cc2)ccc1C#N [Example 59, (S)-N-((S)-1-Cyano-2-(4′-cyano-3′-(ethylsulfonyl)biphenyl-4-yl)ethyl)piperidine-2-carboxamide] — 130-fold lower, 15.8 nM
- CCCS(=O)(=O)c1cc(-c2ccc(C[C@@H](C#N)NC(=O)[C@@H]3CCCCN3)cc2)ccc1C#N [Example 60, (S)-N-((S)-1-Cyano-2-(4′-cyano-3′-(propylsulfonyl)biphenyl-4-yl)ethyl)piperidine-2-carboxamide] — 100-fold lower, 20 nM
- C[S+]([O-])c1cc(-c2ccc(C[C@@H](C#N)NC(=O)[C@@H]3CCCCN3)cc2)ccc1C(N)=O (stereo partly drawn) [Example 61, (2S)-N-((1S)-2-(4′-Carbamoyl-3′-(methylsulfinyl)biphenyl-4-yl)-1-cyanoethyl)piperidine-2-carboxamide] — 50-fold lower, 39.8 nM
- Cc1nccn1-c1cc(-c2ccc(C[C@@H](C#N)NC(=O)[C@@H]3CCCCN3)cc2)ccc1C#N [Example 62, (2S)-N-((1S)-1-Cyano-2-(4′-cyano-3′-(2-methyl-1H-imidazol-1-yl)biphenyl-4-yl)ethyl)piperidine-2-carboxamide] — 130-fold lower, 15.8 nM
